Values joined by “and” are separate entries in the source; they are usually repeats but may differ in a detail not shown here. Identical values can stand only once. Inconclusive results and toxic doses are left out.

This experiment has as its system B6C3F1 mice, B16 melanoma ip, median survival T/C. The experiment can be described thus: NCI In Vivo Anticancer Drug Screen. Data for tumor model B16 Melanoma (intraperitoneal) in B6C3F1 mice. The settings on record: endpoint: median survival time, higher = longer survival. In outline:
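Transplantable tumor in mice; treated vs vehicle control groups; survival or tumor size measured; value = T/C ratio.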

Where [1] appears, read: dose: 12.5 mg/kg/injection, schedule: Q01DX009 (ip), vehicle: saline with Tween-80.
The mark [2] stands for this setting: dose: 25.0 mg/kg/injection, schedule: Q01DX009 (ip), vehicle: saline with Tween-80.
Where [3] appears, read: dose: 100.0 mg/kg/injection, schedule: Q01DX009 (ip), vehicle: saline with Tween-80.
Setting [4] is: dose: 12.5 mg/kg/injection, schedule: Q01DX009 (ip), vehicle: saline.
[5] abbreviates: dose: 25.0 mg/kg/injection, schedule: Q01DX009 (ip), vehicle: saline.
Where [6] appears, read: dose: 50.0 mg/kg/injection, schedule: Q01DX009 (ip), vehicle: saline.
Where [7] appears, read: dose: 6.25 mg/kg/injection, schedule: Q01DX009 (ip), vehicle: Klucel (hydroxypropylcellulose) (HPC).
Where [8] appears, read: dose: 12.5 mg/kg/injection, schedule: Q01DX009 (ip), vehicle: Klucel (hydroxypropylcellulose) (HPC).
The mark [9] stands for this setting: dose: 25.0 mg/kg/injection, schedule: Q01DX009 (ip), vehicle: Klucel (hydroxypropylcellulose) (HPC).
Where [10] appears, read: dose: 50.0 mg/kg/injection, schedule: Q01DX009 (ip), vehicle: Klucel (hydroxypropylcellulose) (HPC).
The mark [11] stands for this setting: dose: 100.0 mg/kg/injection, schedule: Q01DX009 (ip), vehicle: Klucel (hydroxypropylcellulose) (HPC).
[12] abbreviates: dose: 200.0 mg/kg/injection, schedule: Q01DX009 (ip), vehicle: Klucel (hydroxypropylcellulose) (HPC).
The mark [13] stands for this setting: dose: 100.0 mg/kg/injection, schedule: Q01DX009 (ip), vehicle: saline.
The mark [14] stands for this setting: dose: 200.0 mg/kg/injection, schedule: Q01DX009 (ip), vehicle: saline.
Where [15] appears, read: dose: 1.56 mg/kg/injection, schedule: Q01DX009 (ip), vehicle: Klucel (hydroxypropylcellulose) (HPC).
[16] abbreviates: dose: 3.12 mg/kg/injection, schedule: Q01DX009 (ip), vehicle: Klucel (hydroxypropylcellulose) (HPC).

In the case of `O=C1NC(O)CCN1C1OC(CO)C(O)C1O` (stereo not drawn), the T/C (dose: 25.0 mg/kg/injection, schedule: Q01DX008 (ip), vehicle: saline) is 104 % of control; the T/C (dose: 50.0 mg/kg/injection, schedule: Q01DX008 (ip), vehicle: saline) was 99 % of control; the T/C (dose: 100.0 mg/kg/injection, schedule: Q01DX008 (ip), vehicle: saline) was 104 % of control; the T/C (dose: 200.0 mg/kg/injection, schedule: Q01DX008 (ip), vehicle: saline) is 108 % of control; the T/C (dose: 400.0 mg/kg/injection, schedule: Q01DX008 (ip), vehicle: saline) was 108 % of control; the T/C (dose: 800.0 mg/kg/injection, schedule: Q01DX008 (ip), vehicle: saline) is 96 % of control.

Take `OC1CSC1`: the T/C by setting is: (dose: 50.0 mg/kg/injection, schedule: Q01DX009 (ip), vehicle: saline + alcohol) 109 % of control; (dose: 100.0 mg/kg/injection, schedule: Q01DX009 (ip), vehicle: saline + alcohol) 107 % of control; (dose: 200.0 mg/kg/injection, schedule: Q01DX009 (ip), vehicle: saline + alcohol) 113 % of control; (dose: 400.0 mg/kg/injection, schedule: Q01DX009 (ip), vehicle: saline + alcohol) 112 % of control.

On to `C[CH2][Ge]([CH2]C)[CH2]C.C[CH2][Ge]([CH2]C)[CH2]C.C[CH2][Ge]([CH2]C)[O][Ge]([CH2]C)[CH2]C`, for which the T/C was 89 % of control (dose: 3.13 mg/kg/injection, schedule: Q01DX009 (ip), vehicle: saline with Tween-80); 93 % of control (dose: 6.25 mg/kg/injection, schedule: Q01DX009 (ip), vehicle: saline with Tween-80); 87 % of control under setting [1].

`CCCCCCC(=O)CC(SCC)c1ccccc1Cl` (stereo not drawn): the T/C under setting [2] is 86 % of control; the T/C under setting [3] was 93 % of control; the T/C (dose: 400.0 mg/kg/injection, schedule: Q01DX009 (ip), vehicle: saline with Tween-80) was 96 % of control.

Regarding `CNC(=O)ON(C(C)=O)C(=O)NC`, the T/C reads like this: under setting [4], 102 % of control; under setting [5], 107 % of control; under setting [6], 102 % of control.

Take `CC(C)(C)OC(=O)NC(CCCCNC(=O)C(F)(F)F)C(=O)O` (stereo not drawn): the T/C is 109 % of control under setting [7]; 99 % of control under setting [8]; 89 % of control and 99 % of control under setting [9]; 88 % of control and 96 % of control under setting [10]; 96 % of control under setting [11].

For the molecule `ClCCCCCCCCCCc1ccccc1`, the T/C under setting [8] was 91 % of control; the T/C under setting [9] is 94 % of control; the T/C under setting [10] was 91 % of control; the T/C under setting [11] is 93 % of control; the T/C under setting [12] was 90 % of control; the T/C (dose: 400.0 mg/kg/injection, schedule: Q01DX009 (ip), vehicle: Klucel (hydroxypropylcellulose) (HPC)) was 89 % of control.

For `O=C1NC(=O)C2(CCC(C3CCCCC3)CC2)N1` (stereo not drawn), the T/C is, setting by setting: under setting [10], 87 % of control; under setting [11], 89 % of control; under setting [12], 89 % of control.

With `CO[C@H]1Nc2c(ccc(C)c2O)C(=O)N2C=C(/C=C/C(N)=O)C[C@@H]12`, the T/C by setting is: (dose: 0.03 mg/kg/injection, schedule: Q01DX009 (ip), vehicle: saline with Tween-80) 111 % of control; (dose: 0.05 mg/kg/injection, schedule: Q04DX003 (ip), vehicle: DMSO) 92 % of control; (dose: 0.06 mg/kg/injection, schedule: Q01DX009 (ip), vehicle: saline with Tween-80) 104 % of control; (dose: 0.1 mg/kg/injection, schedule: Q04DX003 (ip), vehicle: DMSO) 105 % of control; (dose: 0.12 mg/kg/injection, schedule: Q01DX009 (ip), vehicle: saline with Tween-80) 102 % of control; (dose: 0.2 mg/kg/injection, schedule: Q04DX003 (ip), vehicle: DMSO) 109 % of control. Also, the T/C is 122 % of control (dose: 0.25 mg/kg/injection, schedule: Q01DX009 (ip), vehicle: saline with Tween-80) and 104 % of control (dose: 0.4 mg/kg/injection, schedule: Q04DX003 (ip), vehicle: DMSO).

Consider `CCCCCC#CC1OC12CCCCC2` (stereo not drawn), for which the T/C runs as follows: under setting [1], 100 % of control; under setting [4], 99 % of control; under setting [2], 100 % of control; under setting [5], 105 % of control; (dose: 50.0 mg/kg/injection, schedule: Q01DX009 (ip), vehicle: saline with Tween-80) 108 % of control; under setting [6], 104 % of control. The T/C is 100 % of control under setting [3]; 97 % of control under setting [13]; 93 % of control (dose: 200.0 mg/kg/injection, schedule: Q01DX009 (ip), vehicle: saline with Tween-80); 95 % of control under setting [14].

As to `CN=S(=O)(OCCCCCOS(=O)(=NC)c1ccccc1)c1ccccc1` (stereo not drawn), the T/C is 112 % of control and 201 % of control under setting [1]; 119 % of control under setting [2]; 198 % of control under setting [3].

Regarding `N#C[Se-].c1ccc([Te+](c2ccccc2)c2ccccc2)cc1`, the T/C is, setting by setting: under setting [15], 92 % of control; under setting [16], 97 % of control; under setting [7], 96 % of control; under setting [8], 96 % of control.

For `CCOC(=O)Nc1cc2c(c(N)n1)N=C(CN(C)c1ccccc1)CN2`, the T/C is 93 % of control (dose: 0.78 mg/kg/injection, schedule: Q01DX009 (ip), vehicle: Klucel (hydroxypropylcellulose) (HPC)); 116 % of control under setting [15]; 114 % of control under setting [16]; 117 % of control under setting [7].

Turning to `Cc1cn(C2CC(O)C(CO)O2)c(=O)[nH]c1=O` (stereo not drawn), the T/C is, setting by setting: under setting [4], 99 % of control; under setting [5], 98 % of control; under setting [6], 102 % of control; under setting [13], 98 % of control; under setting [14], 98 % of control; (dose: 400.0 mg/kg/injection, schedule: Q01DX009 (ip), vehicle: saline) 115 % of control.

With `CCC(C(=O)O)C(=O)O.[NH-]CC1CCCC[N-]1.[Pt+2]`, the T/C is, setting by setting: (dose: 6.25 mg/kg/injection, schedule: Q01DX009 (ip), vehicle: saline) 108 % of control; under setting [4], 102 % of control; (dose: 12.5 mg/kg/injection, schedule: Q01DX009 (ip), vehicle: suspension in saline) 113 % of control; under setting [5], 101 % of control; (dose: 25.0 mg/kg/injection, schedule: Q01DX009 (ip), vehicle: suspension in saline) 115 % of control; (dose: 50.0 mg/kg/injection, schedule: Q01DX009 (ip), vehicle: suspension in saline) 123 % of control.

Turning to `CN(C)CCCOc1nc2c(c(=O)n(C)c(=O)n2C)n1C` (tested in a mixture with another compound), the T/C under setting [7] is 90 % of control, the T/C under setting [8] was 111 % of control, the T/C under setting [9] was 102 % of control and the T/C under setting [10] is 107 % of control.

Source of the values: PubChem BioAssay AID200 (DTP/NCI, 2004).
